“And” between values parts separate entries of the source, which are not always exact repeats. Identical values can stand only once. Like-named read-outs stand apart in the source and are kept apart here. Each block holds one molecule with its values, some of them ahead of it.
Tests used:
[1] = system: leukemia cells MV4-11; experiment: Inhibitory activity on growth by MTS method; assay type: cell-based; conditions: Homo sapiens
Experimental: 2. Test of Inhibitory Activities of Compound on Growth by MTS Method Experimental Principle:
MTS assay detects the inhibitory effect of the tested compound to the growth of leukemia cells MV (4:11). The principle is that succinate dehydrogenase in mitochondria in living cells can reduce exogenous thiazole blue to insoluble blue crystal Formazan.
• 1. MV4-11 cells in logarithmic growth phase were accurately counted at 16000 cells/mL, and the diluted cell solution was added to 96-well plates at 90 μL per well. • 2. Fresh medium was taken and sequentially added to a 96-well plate with cell fluid at 90 μL per well. • 3. […] 2 μL of the diluted compound was respectively added to a 96-well plate containing 98 μL of blank medium, and for DMSO group, 98 μL of blank medium was added into 2 μL of DMSO, and mixed for further use. • 5. The compound mixed with the medium was separately added to a 96-well plate in which cells were plated, in triplicate, 20 μL per well, and were mixed. The blank group was added with 200 μL of IMDM medium, and the DMSO group was added with 180 μL of the cell-containing medium in DMSO diluted with the medium. • 6. […]

[2] = Pharmacokinetic experiment in mouse; conditions: plasma
[3] = system: human acute myeloid leukemia MV4-11 subcutaneous transplantation tumor; experiment: Growth of subcutaneous transplantation tumor in nude mice; assay type: in vivo, Balb/c nude mice; conditions: 10 mg/kg qd p.o., 21 days
Source text: Example 3 Evaluation of Chronic Efficacy at the Animal Level:
Inhibitory Effect of LSD1 Inhibitor on the Growth of Subcutaneous Transplantation Tumor in Nude Mice of Human Acute Myeloid Leukemia MV4-11 […]
Animals: Balb/c nude mice, female, weighing 17-20 g, were purchased from Beijing Weitong Lihua Experimental Animal Technology Co., Ltd., and the number of animals per group was 5.
Cell line: MV4-11 cell line was used to inoculate at the right axilla of the nude mice, and the inoculation amount was 5×10^6/animal. The experiment can start after the transplanted tumor was formed.
For female nude mice weighing 20±3 g, MV4-11 cells were inoculated into the right axilla of nude mice at a inoculation amount of 5×10^6/mouse. After tumor formation, the diameter of the transplanted tumor was measured with a vernier caliper. And after the tumor has grown into 100-300 mm^3, the animals were divided into model control group and drug-administered group according to body weight and tumor volume, with 5 mouse in each group. The model control group was given an equal amount of blank solvent. Oral gavage was used daily after grouping for 21 days.
Note: Wc: tumor weight of control group, WT: tumor weight of treatment group.
Data processing: Data were expressed as mean±standard deviation, and statistical methods were T-TEST two-tailed analysis for significant analysis.

[4] = 72 h, MV4-11, 3 days, read-out: MTS 3 D
[5] = 240 h, MV4-11, 10 days, read-out: MTS 10 D

Compound: O=C(OCC1CCN(Cc2ccccc2)CC1)N1CCC(F)(CN[C@@H]2C[C@H]2c2ccccc2)CC1 (relative stereo) [Example A90, (1-Benzylpiperidin-4-yl)methyl 4-fluoro-4-(((trans-2-phenylcyclopropyl)amino)methyl)piperidine-1-carboxylate]
IC50 [1, 4]: > 20 µM | IC50 [1, 5]: 0.03 ± 0.006 µM | AUC(0-inf) ([2]; iv, 10 mg/kg): 2760 ng·h/mL | AUC(0-t) ([2]; iv, 10 mg/kg): 2740 ng·h/mL | MRT inf ([2]; iv, 10 mg/kg): 4 h | Vd ([2]; iv, 10 mg/kg): 14.7 L/kg | clearance ([2]; iv, 10 mg/kg): 60.4 mL/min/kg | half-life ([2]; iv, 10 mg/kg): 3.99 h | AUC(0-inf) ([2]; po): 5480 ng·h/mL | AUC(0-t) ([2]; po): 5220 ng·h/mL | Cmax ([2]; po): 3480 ng/mL | MRT inf ([2]; po): 2.52 h | Tmax ([2]; po): 0.167 h | bioavailability ([2]; po): 95.3% | half-life ([2]; po): 1.93 h

Compound: O=C(O)c1ccc(CN2CCC(F)(CN[C@@H]3C[C@H]3c3ccccc3)CC2)cc1 [(1R,2S)-A5, 4-((4-Fluoro-4-((((1R,2S)-2-phenylcyclopropyl)amino)methyl)piperidin-1-yl)methyl)benzoate]
IC50 [1, 4]: > 20 µM | IC50 [1, 5]: 0.29 ± 0.19 µM

Compound: O=C(OCC1CCN(Cc2ccccc2)CC1)N1CCC(F)(CN[C@@H]2C[C@H]2c2ccccc2)CC1 [(1R,2S)-A90]
Tumor inhibition rate (%) [3]: 85.47% | Tumor weight (g) mean ± SD [3]: 0.15 ± 0.14 g | Tumor weight (g), individual animals 1-5 [3]: 0.27 g and 0.01 g and 0.37 g and 0.08 g and 0.04 g | AUC(0-inf) ([2]; iv, 10 mg/kg): 4840 ng·h/mL | AUC(0-t) ([2]; iv, 10 mg/kg): 4830 ng·h/mL | MRT inf ([2]; iv, 10 mg/kg): 2.93 h | Vd ([2]; iv, 10 mg/kg): 6.05 L/kg | clearance ([2]; iv, 10 mg/kg): 34.4 mL/min/kg | half-life ([2]; iv, 10 mg/kg): 3.23 h | AUC(0-inf) ([2]; po): 7430 ng·h/mL | AUC(0-t) ([2]; po): 7220 ng·h/mL | Cmax ([2]; po): 2950 ng/mL | MRT inf ([2]; po): 5.46 h | Tmax ([2]; po): 0.25 h | bioavailability ([2]; po): 74.8% | half-life ([2]; po): 5.15 h

Compound: O=C(O)c1ccc(CN2CCC(F)(CN[C@H]3C[C@@H]3c3ccccc3)CC2)cc1 [(1S,2R)-A5, 4-((4-Fluoro-4-((((1S,2R)-2-phenylcyclopropyl)amino)methyl)piperidin-1-yl)methyl)benzoate]
IC50 [1, 4]: > 20 µM | IC50 [1, 5]: 3.77 ± 1.19 µM

Compound: O=C(Oc1ccccc1)N1CCC(F)(CNC2CC2c2ccccc2)CC1 (stereo not drawn) [Example A9, Phenyl 4-Fluoro-4-((trans-2-phenylcyclopropyl)amino)methyl)piperidine-1-carboxylate]
IC50 [1, 4]: > 20 µM | IC50 [1, 5]: 1.16 ± 0.15 µM

Compound: CNC1CCC(F)(CNC2CC2c2ccccc2)CC1 (stereo not drawn) [Example A11, 4-fluoro-N-methyl-4-(((trans-2-phenylcyclopropyl)amino)methyl)cyclohexane-1-amine]
IC50 [1, 4]: > 20 µM

Compound: O=C(NC1CCC(F)(CNC2CC2c2ccccc2)CC1)OCc1ccccc1 (stereo not drawn) [Example A19, Benzyl 4-fluoro-4-((trans-2-phenylcyclopropyl)amino)methyl)cyclohexyl)carbamate]
IC50 [1, 4]: > 20 µM | IC50 [1, 5]: 2.57 ± 1.66 µM

Compound: O=C(O)c1ccc(CN2CCC(COC(=O)N3CCC(F)(CNC4CC4c4ccccc4)CC3)CC2)cc1 (stereo not drawn) [Example A91]
IC50 [1, 4]: > 20 µM | IC50 [1, 5]: 1.7 ± 0.83 µM

Compound: O=S(=O)(CC1CCNCC1)N1CCC(F)(CNC2CC2c2ccccc2)CC1 (stereo not drawn) [Example A92, N-((4-Fluoro-1-(piperidin-4-ylmethyl)sulfonyl)piperidin-4-yl)methyl)-trans-2-phenylcyclopropylamine]
IC50 [1, 4]: > 20 µM | IC50 [1, 5]: 0.132 ± 0.055 µM

Compound: CC(C)(C)OC(=O)c1ccc(CN2CCC(F)(CNC3CC3c3ccc(Br)s3)CC2)cc1 (stereo not drawn) [Example A101, Tert-Butyl 4-((4-(((2-(5-bromothien-2-yl))cyclopropyl)amino)methyl)-4-fluoropiperidin-1-yl)methyl)benz Oate]
IC50 [1, 4]: 2.21 ± 0.63 µM | IC50 [1, 5]: > 20 µM

Compound: O=C(O)c1ccc(CN2CCC(F)(CNC3CC3c3ccc(Br)s3)CC2)cc1 (stereo not drawn) [Example A102]
IC50 [1, 4]: > 20 µM | IC50 [1, 5]: > 20 µM

Compound: CC(C)(C)OC(=O)c1ccc(CN2CCC(F)(CNC3CC3c3ccc(-c4ccc(F)cc4)s3)CC2)cc1 (stereo not drawn) [Example A105, Tert-butyl 4-((4-fluoro-4-(((2-(5-(4-fluorophenyl)thiophen-2-yl)cyclopropyl)amino)methyl)piperidin-1-yl)methyl)benzoate]
IC50 [1, 4]: 1.95 ± 0.6 µM | IC50 [1, 5]: 8.35 ± 0.71 µM

Compound: CC(C)(C)OC(=O)c1ccc(CN2CCC(F)(CNC3CC3c3ccc(-c4ccc(Cl)cc4)s3)CC2)cc1 (stereo not drawn) [Example A106]
IC50 [1, 4]: 1.71 ± 0.22 µM | IC50 [1, 5]: 9.99 ± 1.5 µM

Compound: CC(C)(C)OC(=O)c1ccc(CN2CCC(F)(CNC3CC3c3ccc(-c4ccc(C(F)(F)F)cc4)s3)CC2)cc1 (stereo not drawn) [Example A107, Tert-butyl 4-((4-fluoro-4-(((2-(5-(4-(trifluoromethyl)phenyl)thiophen-2-yl)cyclopropyl)amino)methyl)piperidin-1-yl)methyl)benzoate]
IC50 [1, 4]: 0.75 ± 0.15 µM | IC50 [1, 5]: 13 ± 1.9 µM

Compound: CC(C)(C)OC(=O)c1ccc(CN2CCC(F)(CNC3CC3c3ccc(-c4ccccc4)s3)CC2)cc1 (stereo not drawn) [Example A108, Tert-butyl 4-((4-fluoro-4-(((2-(5-phenylthiophen-2-yl)cyclopropyl)amino)methyl)piperidin-1-yl)methyl)benzoate]
IC50 [1, 4]: 2.64 ± 0.97 µM | IC50 [1, 5]: 11.9 ± 2.04 µM

Compound: CC(C)(C)OC(=O)c1ccc(CN2CCC(F)(CNC3CC3c3ccc(-c4cccc5ccccc45)s3)CC2)cc1 (stereo not drawn) [Example A109, tert-Butyl 4-((4-fluoro-4-(((2-(5-(naphthalen-1-yl)thiophen-2-yl)cyclopropyl)amino)methyl)piperidine-1-yl)methyl)benzoate]
IC50 [1, 4]: 2.1 ± 0.12 µM | IC50 [1, 5]: 4.7 ± 1.68 µM

Compound: O=C(OCC1CCNCC1)N1CCC(F)(CNC2CC2c2ccc(-c3cccc(C(F)(F)F)c3)nc2)CC1 (stereo not drawn) [Example A117]
IC50 [1, 4]: 15.4 ± 3.71 µM | IC50 [1, 5]: 6.51 ± 2.02 µM

Next, values leading:

IC50 [1, 4]: > 20 µM | IC50 [1, 5]: 0.96 ± 0.444 µM
Compound: O=C(OCC1CCNCC1)N1CCC(F)(CN[C@H]2C[C@@H]2c2ccccc2)CC1 [(1S,2R)-A43]

IC50 [1, 4]: 2.59 ± 0.14 µM | IC50 [1, 5]: 5.93 ± 0.35 µM
Compound: O=C(OCC1CCNCC1)N1CCC(F)(CNC2CC2c2ccc(-c3ccc(C(F)(F)F)cc3)s2)CC1 (stereo not drawn) [Example A110, Piperidin-4-ylmethyl 4-fluoro-4-(((2-(5-(4-(trifluoromethyl)phenyl)thiophen-2-yl)cyclopropyl)amino)methyl) piperidine-1-carboxylate]

IC50 [1, 4]: > 20 µM | IC50 [1, 5]: 19.9 ± 0.86 µM
Compound: O=C(OCC1CCNCC1)N1CCC(F)(CNC2CC2c2ccc(Br)s2)CC1 (stereo not drawn) [Example A111, Piperidin-4-ylmethyl 4-(((2-(5-bromothien-2-yl)cyclopropyl)amino)methyl)-4-fluoropiperidine-1-carboxylate]

IC50 [1, 4]: > 20 µM | IC50 [1, 5]: > 20 µM
Compound: COc1ccc(-c2ccc(C3CC3NCC3(F)CCN(C(=O)OCC4CCNCC4)CC3)cn2)cc1 (stereo not drawn) [Example A112, Piperidin-4-ylmethyl 4-fluoro-4-(((2-(6-(4-methoxyphenyl)pyridin-3-yl)cyclopropyl)amino)methyl)piperidine-1-carboxylate]

IC50 [1, 4]: > 20 µM | IC50 [1, 5]: > 20 µM
Compound: O=C(OCC1CCNCC1)N1CCC(F)(CNC2CC2c2ccc(C3CC3)s2)CC1 (stereo not drawn) [Example A113, Piperidin-4-ylmethyl 4-(((2-(5-cyclopropylthien-2-yl)cyclopropyl)amino)methyl)-4-fluoropiperidine-1-carboxylate]

IC50 [1, 4]: 15.3 ± 0.78 µM | IC50 [1, 5]: 7.84 ± 0.35 µM
Compound: N#Cc1ccc(C#Cc2ccc(C3CC3NCC3(F)CCN(C(=O)OCC4CCNCC4)CC3)s2)cc1 (stereo not drawn) [Example A114, Piperidin-4-ylmethyl 4-(((2-(5-((4-cyanophenyl)ethynyl)thiophen-2-yl)cyclopropyl)amino)methyl)-4-fluoropiperidine-1-carboxylate]

IC50 [1, 4]: > 20 µM | IC50 [1, 5]: 11 ± 0.978 µM
Compound: O=C(OCC1CCNCC1)N1CCC(F)(CNC2CC2c2ccc(-c3ccccc3)nc2)CC1 (stereo not drawn) [Example A115, Piperidin-4-ylmethyl 4-fluoro-4-(((2-(6-phenylpyridin-3-yl)cyclopropyl)amino)methyl)piperidine-1-carboxylate]

IC50 [1, 4]: 19.4 ± 7.38 µM | IC50 [1, 5]: 7.41 ± 2.53 µM
Compound: CCc1ccc(Oc2ccc(C3CC3NCC3(F)CCN(C(=O)OCC4CCNCC4)CC3)cn2)cc1 (stereo not drawn) [Example A116]

IC50 [1, 4]: > 20 µM | IC50 [1, 5]: 10.2 ± 2.77 µM
Compound: O=C(OCC1CCNCC1)N1CCC(F)(CNC2CC2c2ccc(-c3ccc(F)cc3)nc2)CC1 (stereo not drawn) [Example A118, Piperidin-4-ylmethyl 4-fluoro-4-(((2-(6-(4-fluorophenyl)pyridin-3-yl)cyclopropyl)amino)methyl)piperidine-1-carbox ylate]
